In paper PMC11714206, “Massively Parallel Screening of Toll/Interleukin‐1 Receptor (TIR)‐Derived Peptides Reveals Multiple Toll‐Like Receptors (TLRs)‐Targeting Immunomodulatory Peptides” (Advanced Science, 2024):
Values belong to the sequence of their own block, whether it stands above or below them.

Molecular target: T1, MAL^TIR (Homo sapiens, UniProt P58753)
T1 construct: MAL (residues 79–221); 6xHis; made in house; host or cells: E. coli BL21 (DE3)
Assay: T‐Surf phage library (P8 and P3) selection against MAL^TIR, four rounds, NGS read counts
Format: binding
Conditions: for P8_MAL Rank (after) / P8_MAL Rank (before): P8 library; for P3_MAL Rank (after) / P3_MAL Rank (before): P3 library; for Population: 4th round of selection against MAL TIR, share of NGS reads
Procedure: T‐Surf libraries were screened against the immobilized TIR domains of two major human TLR adaptor proteins, MAL^TIR and MyD88^TIR, allowing cross‐species selection of TIR‐binding motifs with 190 946 TIR‐derived peptides in a single binding assay (Scheme 1). Enriched phage pools from the fourth round of selection were analyzed using NGS after barcoding the peptide‐coding regions of the phage pools.
Phage display screening was performed by coating two wells of a 96‐well plate (Maxisorp, Thermo Fisher Scientific) with 100 µL of 5 µg mL^−1 TIR domains overnight; then, the coated wells were blocked with 200 µL of blocking buffer (0.2% BSA in PBS) and set aside for 1 h at 4 °C with gentle shaking. Next, 100 µL of the phage library was added to the wells and incubated for 1 h at room temperature (RT; 20 – 22 °C) with gentle shaking. The plate was washed four times with PBS containing 0.5% Tween‐20; the bound phages were eluted by adding 100 µL of 100 mM HCl to each well. The elute was neutralized with 10 µL of 1.0 M Tris‐HCl (pH 11.0). E. coli TG1 cells were grown to the log phase (A600 = ≈0.6), and 1 mL of the culture was incubated with 100 µL of the eluted phages for 30 min at 37 °C, with shaking at 200 rpm. Next, 1 µL of M13KO7 helper phages was added, followed by incubation for 45 min at 37 °C, with shaking. Subsequently, the cells were transferred to 25 mL of 2× yeast extract tryptone/carbenicillin/kanamycin medium and incubated overnight at 37 °C with shaking at 200 rpm. The amplified phages were precipitated with 20% PEG‐8000/2.5 M NaCl to be used for the next round of selection.
The naïve T‐Surf libraries in P8 and P3 and the enriched phage pools after four rounds were barcoded for NGS as previously described.^[ [59] ^] Briefly, 5 µL of the phage pool was used as a template for 20 cycles of a 50 µL PCR reaction using […] each of forward and reverse barcoded primers and PrimeSTAR Max DNA Polymerase. The PCR products were purified using Expin Gel SV (GeneAll). The NGS samples were quantified using qPCR, following the qPCR Quantification Protocol Guide (KAPA Library Quantification kits for Illumina Sequencing Platform), and qualified using the TapeStation High Sensitivity D1000 ScreenTape (Agilent Technologies). The indexed libraries were further sequenced by Macrogen (Seoul, Republic of Korea) using the NovaSeq platform (Illumina) with 100 bp paired‐end reads. The reads were demultiplexed by barcodes and filtered for an average Phred quality score of at least 30, followed by trimming the flanking consensus sequences using Cutadapt (version 2.3). Peptide sequence populations were analyzed according to the read counts.

[1] = selection against MAL, rank after grouping
[2] = selection against MAL, rank before grouping
[3] = P8_MAL: rank by count after grouping
[4] = P8_MAL: rank by count before grouping
[5] = selection against MAL TIR, rank by count after grouping
[6] = selection against MAL TIR, rank by count before grouping
[7] = P3_MAL: rank by count after grouping
[8] = P3_MAL: rank by count before grouping
[9] = 4R selection against MAL, rank after grouping
[10] = 4R selection against MAL, rank before grouping
[11] = selection against MAL, rank by count after grouping
[12] = selection against MAL, rank by count before grouping
[13] = P8_MAL pool: P8 T-Surf phage library

T1 sequence (P58753 79-221): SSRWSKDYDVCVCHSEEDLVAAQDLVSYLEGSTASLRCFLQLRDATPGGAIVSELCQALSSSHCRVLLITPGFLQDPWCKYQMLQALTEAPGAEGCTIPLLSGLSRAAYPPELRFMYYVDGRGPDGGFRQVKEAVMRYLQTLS

Sequence: KNLFNELVSKNIRTFM
Rank (after) [3]: 116
Rank (before) [4]: 732

Sequence: SLFCNKLRYHLPAPQH
P3_MAL Rank (after) [5]: 214
P3_MAL Rank (before) [6]: 3027

Sequence: RNNFICHLYQELYRIG
Rank (after) [3]: 428
Rank (before) [4]: 2264

Sequence: RGFLSNLGHHLQAKDH
Rank (after) [7]: 440
Rank (before) [8]: 2401

Sequence: RNFVAQLKRALANKAI
P8_MAL Rank (after) [1]: 499
P8_MAL Rank (before) [2]: 2310

Sequence: LFFWESLKQLLRSVGH
P8_MAL Rank (after) [1]: 538
P8_MAL Rank (before) [2]: 2102

Sequence: AFFLAQLKSVLGNPTT
P8_MAL Rank (after) [9]: 670
P8_MAL Rank (before) [10]: 1579

Sequence: YAFTGYLHRYLVQRGG
Rank (after) [7]: 445
Rank (before) [8]: 1356

Sequence: YAFTGHQHNYMVQRGV
Rank (after) [7]: 420
Rank (before) [8]: 1447

Sequence: TFLGHLYNALLQPGIH
Rank (after) [3]: 181
Rank (before) [4]: 2616

Sequence: RGFLSHLRHPVHPKDH
P3_MAL Rank (after) [9]: 615
P3_MAL Rank (before) [10]: 2367

Sequence: SFFDRLVSVILRDTNV
P8_MAL Rank (after) [11]: 701
P8_MAL Rank (before) [12]: 1441

Sequence: KELLHKWKLALTQTPN
P3_MAL Rank (after) [9]: 621
P3_MAL Rank (before) [10]: 3593

Sequence: RLLKWKEALHQFIAG
P3_MAL Rank (after) [5]: 264
P3_MAL Rank (before) [6]: 2518

Sequence: PQDLEWFYERLVSLIL
Rank (after) [3]: 423
Rank (before) [4]: 2328

Sequence: WHFHLRLRMPDPLQKI
Rank (after) [7]: 432
Rank (before) [8]: 1297

Sequence: WFLFTVRSATYTMSPA
P8_MAL Rank (after) [5]: 220
P8_MAL Rank (before) [6]: 1338

Sequence: NQWRNALTAPANLSGR
P3_MAL Rank (after) [5]: 228
P3_MAL Rank (before) [6]: 3389

Sequence: SSFREGLWRLLELRQK
P3_MAL Rank (after) [5]: 276
P3_MAL Rank (before) [6]: 3147

Sequence: AFFGAQLKSVLRNPTM
P8_MAL Rank (after) [5]: 191
P8_MAL Rank (before) [6]: 1739

Sequence: YAFTGHLHRYLVQRKQI
P3_MAL Rank (after) [11]: 752
P3_MAL Rank (before) [12]: 1404

Sequence: SLLYDYLRCLGIRAIL
Rank (after) [3]: 475
Rank (before) [4]: 2493

Sequence: SFFWSKLSYHLPAPQH
P3_MAL Rank (after) [1]: 559
P3_MAL Rank (before) [2]: 2991

Sequence: YAFTGHLHRYLVQRGL
Population (P3_MAL pool: P3 T-Surf phage library): 0.00376%

Sequence: YAFTGHLHRYLVQRDM
Rank (after) [7]: 391
Rank (before) [8]: 1403

Sequence: LKVESWRQALKQRAL
P3_MAL Rank (after) [1]: 483
P3_MAL Rank (before) [2]: 2283

Sequence: RGFLSHLRHHLPAKEH
P3_MAL Rank (after) [5]: 275
P3_MAL Rank (before) [6]: 2395

Sequence: AFFWEQLRTLLGQPTM
Rank (after) [3]: 127
Rank (before) [4]: 1699

Sequence: HQSFWARTWAALIAPS
P3_MAL Rank (after) [11]: 724
P3_MAL Rank (before) [12]: 2849

Sequence: LFFWEKLRQLLRRAAS
Rank (after) [3]: 387
Rank (before) [4]: 2124

Sequence: SSFREGLWRLLDLSKQ
P3_MAL Rank (after) [11]: 732
P3_MAL Rank (before) [12]: 3144

Sequence: WFYERLVSLIRRDIKV
P8_MAL Rank (after) [11]: 694
P8_MAL Rank (before) [12]: 1219

Sequence: WFYERLVRLILSDTKV
P8_MAL Rank (after) [1]: 549
P8_MAL Rank (before) [2]: 1175

Sequence: AFLDPFLITLIQASNF
P8_MAL Rank (after) [1]: 505
P8_MAL Rank (before) [2]: 1908

Sequence: WFYEFLVFLILRDTKV
P8_MAL Rank (after) [5]: 251
P8_MAL Rank (before) [6]: 1143

Sequence: ALLNNFLIKLTHPSII
Rank (after) [3]: 448
Rank (before) [4]: 1959

Sequence: KERLHQWKLALTQAA
P3_MAL Rank (after) [1]: 526
P3_MAL Rank (before) [2]: 3601

Sequence: RLLKWKEALHQFQTWL
P3_MAL Rank (after) [11]: 701
P3_MAL Rank (before) [12]: 2516

Sequence: LFFWDSLKQLMRSDGR
P8_MAL Rank (after) [5]: 283
P8_MAL Rank (before) [6]: 2070

Sequence: YAFTGPPHRYMVQRGV
Rank (after) [7]: 460
Rank (before) [8]: 1354

Sequence: AFFWEQLKSVLGNPTM
Population [13]: 0.00371%

Sequence: RNFVADLFPALPNKGI
P8_MAL Rank (after) [1]: 566
P8_MAL Rank (before) [2]: 2232

Sequence: SLRKNLVRNLIEEFNR
P3_MAL Rank (after) [11]: 759
P3_MAL Rank (before) [12]: 3094

Sequence: TFLGHLYNSLVQAGTH
P8_MAL Rank (after) [9]: 633
P8_MAL Rank (before) [10]: 2563

Sequence: RGFLEPLRHHLQAKEQ
P3_MAL Rank (after) [9]: 649
P3_MAL Rank (before) [10]: 2355

Sequence: SSFREGLWRPPELSEK
P3_MAL Rank (after) [11]: 748
P3_MAL Rank (before) [12]: 3167

Sequence: CFLQNLCYALTYRPAT
P3_MAL Rank (after) [9]: 637
P3_MAL Rank (before) [10]: 1215

Sequence: KEVEGWRDALRKIANIF
Rank (after) [7]: 417
Rank (before) [8]: 3560

Sequence: YNLISQLYEALHLNRI
P3_MAL Rank (after) [9]: 645
P3_MAL Rank (before) [10]: 1587

Sequence: KLIQGGCLYRLLKIEQ
Rank (after) [3]: 421
Rank (before) [4]: 2752

Sequence: YAFTSHLSRYLVQRGV
P3_MAL Rank (after) [5]: 223
P3_MAL Rank (before) [6]: 1476

Sequence: DWFLSHLRHHLQAKDH
Rank (after) [7]: 183
Rank (before) [8]: 779

Sequence: WFYARLVSLLLRDTKV
Rank (after) [3]: 150
Rank (before) [4]: 1132

Sequence: KEVEGWRDALSSIASRP
Rank (after) [7]: 163
Rank (before) [8]: 685

Results, then the sequence that gave them:

P8_MAL Rank (after) [1]: 576
P8_MAL Rank (before) [2]: 2041
Sequence: EFVLTFVINLTPRTSF

Rank (after) [3]: 395
Rank (before) [4]: 1438
Sequence: SFLHFLLLSRPETAYI

Rank (after) [3]: 118
Rank (before) [4]: 1290
Sequence: WFYERLVSLILRNTRV

P3_MAL Rank (after) [9]: 599
P3_MAL Rank (before) [10]: 3565
Sequence: KEVEGWRDALTQAAN

P8_MAL Rank (after) [1]: 564
P8_MAL Rank (before) [2]: 2069
Sequence: LFFWDSLKQLLRSAGR

P8_MAL Rank (after) [9]: 610
P8_MAL Rank (before) [10]: 2417
Sequence: HFFWIQLKNILGENSF

P3_MAL Rank (after) [1]: 538
P3_MAL Rank (before) [2]: 3423
Sequence: NQCRNALTPAAKLSSL

P3_MAL Rank (after) [11]: 742
P3_MAL Rank (before) [12]: 1345
Sequence: YAFPFHLFSCPELRGV

P3_MAL Rank (after) [5]: 211
P3_MAL Rank (before) [6]: 2053
Sequence: ESILNQLRRSSESIAK

P8_MAL Rank (after) [5]: 246
P8_MAL Rank (before) [6]: 2346
Sequence: QLIQPWMELHLHQLHL

Rank (after) [7]: 94
Rank (before) [8]: 94
Sequence: VRHNFIGYLRDALQHR

P8_MAL Rank (after) [5]: 252
P8_MAL Rank (before) [6]: 2096
Sequence: LFFWESLKQLLRRAGL

P8_MAL Rank (after) [5]: 285
P8_MAL Rank (before) [6]: 1721
Sequence: AFFWTHLKNLPRNPTF

Rank (after) [3]: 184
Rank (before) [4]: 992
Sequence: HFFWIQLKAFWAKPA

P3_MAL Rank (after) [5]: 206
P3_MAL Rank (before) [6]: 2531
Sequence: RLLKWKEEMHQFHSWV

Population [13]: 0.00371%
Sequence: WFYEHLVSLILRDTKV

P8_MAL Rank (after) [5]: 203
P8_MAL Rank (before) [6]: 2461
Sequence: SEFIQKIILWLNTKIV

P3_MAL Rank (after) [11]: 766
P3_MAL Rank (before) [12]: 3603
Sequence: KERLHQWKLALTQAANLS

Rank (after) [3]: 481
Rank (before) [4]: 2445
Sequence: SEFLGAAEKRAGQSDD

P3_MAL Rank (after) [5]: 200
P3_MAL Rank (before) [6]: 2645
Sequence: PEKDNGGANAFSNNIV

Rank (after) [7]: 387
Rank (before) [8]: 2092
Sequence: LVAHGISNKLKIFATI

P8_MAL Rank (after) [5]: 269
P8_MAL Rank (before) [6]: 2441
Sequence: SFFWNKLRYHLPAPQH

Rank (after) [7]: 397
Rank (before) [8]: 2901
Sequence: HQKGSYGEAPAEHEKR

P3_MAL Rank (after) [9]: 657
P3_MAL Rank (before) [10]: 2426
Sequence: RGYLRHVRHHLQAKDH

P8_MAL Rank (after) [5]: 271
P8_MAL Rank (before) [6]: 1926
Sequence: ALCWAQLKIVLANLPI

P3_MAL Rank (after) [1]: 553
P3_MAL Rank (before) [2]: 1465
Sequence: YAFTRHLHRYLVQRAA

P3_MAL Rank (after) [1]: 533
P3_MAL Rank (before) [2]: 2303
Sequence: LKGESWRQAREKAGKL

Rank (after) [3]: 140
Rank (before) [4]: 1242
Sequence: WFYERLVNLNLRDTKV

Rank (after) [7]: 189
Rank (before) [8]: 2551
Sequence: RLQKWKEALHQIHSRV

P3_MAL Rank (after) [9]: 666
P3_MAL Rank (before) [10]: 1358
Sequence: YAFTGHFHCCKLQRGV

P3_MAL Rank (after) [11]: 703
P3_MAL Rank (before) [12]: 2351
Sequence: RGFLNHLHHHLQPNDH
